Here are results for 2 compounds from patent US20170136021A1, “METHODS AND COMPOSITIONS FOR TREATING ENVELOPED VIRUSES” (priority 2014, published 2017).

Assay [1] deals with Ebola virus. Put plainly: microbe, parasite or virus in culture. Format: cell-based. The note with it: for EC50: Zaire ebolavirus, Vero, read-out: EC50 of Ebola infection.
The subject of a further assay is rVSV-EBOV-GP. In words: organism not typed. Format: cell-based, vesicular stomatitis virus expressing EBOV glycoprotein.
For assay [2], the system named is Ebola virus. Also noted: species or system mice. The note with it: mouse, in vivo.
In assay [3] the test system is Ebola virus. Format: cell-based.

Consider `CCN(CC)CCNC(=O)c1c(C)[nH]c(/C=C2\C(=O)Nc3ccc(F)cc32)c1C` [sunitinib], for which the EC50 – broadly, the concentration giving half of the maximal effect – with Ebola virus [1] was found to be 2.25 µM. Also, the IC50 – broadly, the midpoint of a concentration-inhibition curve – in the assay on rVSV-EBOV-GP (Vero, 20 h, read-out: IC50 of viral entry inhibition) worked out at 6.15 µM.

For `C#Cc1cccc(Nc2ncnc3cc(OCCOC)c(OCCOC)cc23)c1` [erlotinib], in the assay with Ebola virus [1], the “overall infection with Ebola virus” value was “dose-dependent reduction” and the EC50 came out at 4.22 µM. For the same compound, the Ebola entry entry in the assay on rVSV-EBOV-GP was “reduced Ebola entry in a dose-dependent manner”. Further, the “mortality of Ebola infected mice” value in the assay with Ebola virus [2] is recorded as “reduces”. Besides, the percentage survival with Ebola virus [2] (30 mg/kg) is recorded as 100%. Besides, in the assay with Ebola virus [3], the “Ebola replication in cells” value is “reduces” and the “percentage of Ebola positive cells versus concentration (inhibition of Ebola)” value is given as “inhibition of Ebola by erlotinib in a dose-dependent manner”.
